Converted amounts (≈) assume the structure as drawn. “And” between values parts separate entries of the source, which are not always exact repeats. Equal values may be shown once. Read-outs that look alike come from different tables or passages of the source.
What was measured:
Candida krusei biofilm = test system: Candida krusei biofilm; parameters: method as in Kvasnickova et al., 2015; settings: at 300 μg/ml, 24-h biofilm; ref Kvasnickova et al., 2015; cited from earlier work
[1] = test system: C. albicans planktonic yeast; assay: Minimal inhibitory concentration, broth microdilution (CLSI M27-A3 adapted); type: cell-based, Candida albicans ATCC 28367
Method: Stock solutions of lichen compounds were prepared in DMSO at 10 mg/ml and were used for all the experiments performed. Their antifungal minimum inhibitory concentrations (MICs) were determined by a broth microdilution method (CLSI reference M27-A3 micromethod adapted protocol) as previously described ([Millot et al., 2017]). Briefly, an inoculum of C. albicans ATCC® 28367™ (American Type Culture Collection) adjusted to 0.5 Mac Farland absorbance was diluted 1:1,000 in RPMI-MOPS. A volume of this yeast culture was added to an equivalent volume of compound solution at several concentrations (100 to 0.048 μg/ml final) in 96-well microtiter plates. Controls as untreated yeasts (negative control), yeasts treated with 2% DMSO and yeasts treated with fluconazole (positive control) were included. After 24 and 48 h incubation at 37°C without shaking, the MICs were determined. All tests were performed in duplicate in at least two separate experiments.

[2] = test system: C. albicans (ATCC: 90028) biofilm; parameters: method as in Nithyanand et al., 2015b; settings: at 100 µg/ml, added before the adhesion step, ring test; ref Nithyanand et al., 2015b; cited from earlier work
[3] = test system: Candida albicans biofilms on the maturation phase; assay: Anti-maturation test (XTT), compounds added after 2 h adherence; type: cell-based, Candida albicans ATCC 28367; settings: for IC50: Candida albicans
Method: (§1) The anti-maturation and/or anti-biofilm activities of lichen compounds were assessed as previously described ([Millot et al., 2017]). Briefly, C. albicans (ATCC® 28367™) cultures were prepared at a final concentration of 1 × 10^7 cells/ml in yeast nitrogen base medium (Difco, Detroit, MI), supplemented with 50 mM glucose (Sigma, St Louis, MO) (YNB-Glc) from a preculture incubated overnight at 37°C without shaking.
(§2) A total of 200 µl of yeast culture was added to each well of untreated 96-well tissue culture plates. The plates were then incubated at 37°C for 2 h for the anti-maturation test and for 24 h for the anti-biofilm test. After aspiration of spent media and free-floating microorganisms, 250 μl per well of YNB-Glucose and 50 μl lichen compound samples obtained by serial twofold dilutions of each stock solution over the final range 200 to 0.097 μg/ml or 200 to 6.25 μg/ml were added to wells. Controls were also present: untreated yeasts (negative control) and yeasts treated with 2% DMSO. After 24 and/or 48 h of incubation at 37°C followed by aspiration of spent media and free-floating microorganisms, the wells were washed with phosphate-buffered saline (PBS) and observed under an inverted optical microscope (IX51® inverted microscope, Olympus). Biofilms were quantified using a metabolic assay based on the reduction of a tetrazolium salt (XTT) and absorbance measurements at 492 nm (microplate reader LP400; Sanofi Diagnostics Pasteur) ([Cocuaud, 2005]; [Dalleau et al., 2008]). The percent inhibition was determined from the absorbance values compared to the mean absorbance value obtained for untreated wells (100%).
(§3) Concentrations of lichen products inhibiting 50% of biofilms were determined for each tested sample by constructing a dose–response curve and selecting the closest tested concentration value above or equal to 50% inhibition. All anti-maturation and anti-biofilm tests were performed at least in triplicate in at least two separate experiments. The lichen compounds with MMIC50 or/and MBIC50 less than 100 μg/ml were considered as potentially useful.
(§4) Anti-maturation and anti-biofilm tests were performed with C. albicans ATCC® 28367™, as previously described, in 96-well microplates with evernic acid alone, cyclodextrin alone, and evernic acid included in cyclodextrin at over 50 to 1.5 µM final range of evernic acid (serial twofold dilution).

[4] = test system: 24-h C. parapsilosis biofilms; parameters: method as in Pires et al., 2012; settings: 24-h biofilm, vs untreated controls; ref Pires et al., 2012; cited from earlier work
[5] = test system: Candida albicans preformed 24-h-old biofilm; assay: Anti-biofilm test (XTT) on preformed 24-h-old biofilm; type: cell-based, Candida albicans ATCC 28367
Method: as §1, §2, §3, §4

[6] = test system: 24-h Candida orthopsilosis biofilms; parameters: method as in Pires et al., 2012; settings: 24-h biofilm, vs untreated controls; ref Pires et al., 2012; cited from earlier work
[7] = test system: Candida parapsilosis biofilm; parameters: method as in Kvasnickova et al., 2015; settings: at 300 μg/ml, 24-h biofilm; ref Kvasnickova et al., 2015; cited from earlier work
C. albicans = test system: C. albicans; parameters: method as in Nithyanand et al., 2015b; settings: at 100 µg/ml; ref Nithyanand et al., 2015b; cited from earlier work
48-h C. albicans biofilm = test system: 48-h C. albicans biofilm; parameters: method as in Peralta et al., 2016; settings: 4 μg/ml, ref Peralta et al., 2016, cited from earlier work
red blood cells = assay: Hemolysis test; type: cell-based; settings: at 100 µg/ml, 1 h
Method: Then, 480 µl of each dilution was added to 20 µl of healthy red blood cells (Poitiers University Hospital, Hematology Department) in microtubes (final hematocrit = 4%). Some microtubes were reserved for controls: untreated red blood cells (negative control), cells treated with sterile distilled water (positive control = 100% hemolysis), and cells treated with 1% DMSO. After 1 h of incubation at 37°C, the tubes were centrifuged for 10 s at 14,000 g (A14 centrifuge Jouan) twice, and 200 µl of each supernatant was transferred into 96-well microtiter plates for colorimetric measurements at 450 nm (microplate reader LP400; Sanofi Diagnostics Pasteur) in order to determine the hemolysis percentages of each compound ([Evans et al., 2013]). All tests were performed in duplicate (at least two separate experiments).

[8] = parameters: method as in Shcherbakova et al. (2021); settings: ref Shcherbakova et al. (2021); cited from earlier work
[9] = test system: HeLa human epithelial cervix cells; assay: Growth inhibition of HeLa cells (MTT, 72 h); type: cell-based; settings: for Growth inhibition of HeLa cells (% inhibition): 72 h
Method: HeLa human epithelial cervix cells were grown as monolayers at 37°C in a 5% CO2–95% air humidified atmosphere in RPMI supplemented with 10% FBS and […] gentamycin and streptomycin. Cells (2,000 cells/well) were seeded into each well of 96-well plates. […] The final DMSO concentration was less than 1% and tested as a negative control. Cell viability at 72 h was studied using the MTT assay. Then, 5 µl of MTT (10 mg/ml) was added to each well, and the plates were incubated for 4 h. The medium was then removed by aspiration, and 200 µl DMSO was added to each well. Proliferation was determined spectrophotometrically by measuring the absorbance at 540 nm. The percent of growth inhibition (%GI) was calculated as follows: %GI = [(DO (ʎ540 nm) control - DO (ʎ540 nm) treated)/DO (ʎ540 nm) control] * 100. All experiments were performed in duplicate with at least two replicate experiments.

[10] = 24 h of treatment, read-out: Anti-maturation activity MMIC50
[11] = 48 h of treatment, read-out: Anti-maturation activity MMIC50
[12] = Candida albicans, 24 h, 24 h of treatment, 24-h-old biofilm, read-out: Anti-biofilm activity MBIC50
[13] = Candida albicans, 48 h, 48 h of treatment, 24-h-old biofilm, read-out: Anti-biofilm activity MBIC50

SMILES	Hemolytic activity (%) (red blood cells)	IC50 [3, 10]	IC50 [3, 11]	IC50 [5, 12]	IC50 [5, 13]	also measured
CC(=O)C1=C(O)C=C2Oc3c(C(C)=O)c(O)c(C)c(O)c3C2(C)C1=O (stereo in doubt) [Compound 11, (+)-usnic acid]	–	–	–	–	–	Anti-biofilm properties (Candida krusei biofilm): no anti-biofilm properties; MIC [1]: > 100 µg/mL; Biofilm inhibition [2]: 65%; IC50 ([3]; 24 h, read-out: Anti-maturation activity MMIC50): > 200 µg/mL; IC50 ([3]; 48 h, read-out: Anti-maturation activity MMIC50): > 200 µg/mL; Anti-maturation activity ([3]; at 200 µg/ml): not active; Concentration inducing 80% inhibition of cell growth [4]: 62.5 µg/mL; Anti-biofilm activity ([5]; 24-h-old biofilm, in words): no anti-biofilm activity; IC50 ([5]; Candida albicans, 24 h, read-out: Anti-biofilm activity MBIC50): > 200 µg/mL; IC50 ([5]; Candida albicans, 48 h, read-out: Anti-biofilm activity MBIC50): > 200 µg/mL; IC50 ([5]; Candida albicans, read-out: MBIC50): ≥ 100 µg/mL; Concentration inducing 80% inhibition of cell growth [6]: 31.2 µg/mL; Anti-biofilm properties [7]: no anti-biofilm properties; Antifungal activity (C. albicans): no antifungal activity; Biofilm biomass (48-h C. albicans biofilm; control 18.39): 4.91 μm^3/μm^2; Inhibition of biofilm biomass (48-h C. albicans biofilm): 73.3%; Reduction of biofilm thickness (48-h C. albicans biofilm): 76.8%
COc1cc(C)c(C(=O)Oc2cc(C)c(C(=O)O)c(O)c2)c(O)c1 [Compound 1, Evernic acid]	0%	100 µg/mL (≈ 301 µM)	6.25 µg/mL and 18 µM	200 µg/mL	≤ 12.5 µg/mL	Hemolytic activity (%) (red blood cells; listed as Evernic acid): no hemolytic activity; Hemolytic activity (%) (red blood cells; listed as evernic acid): no effect at all; Predicted cytotoxicity risks [8]: absence of mutagenic, tumorigenic, reproductive, and irritant effects; Anti-biofilm activity MBIC50 ([5]; 48 h of treatment, 24-h-old biofilm): 12.5 µg/mL; IC50 ([5]; 48 h of treatment, 24-h-old biofilm, listed as Evernic acid, read-out: Anti-biofilm activity MBIC50): < 12.5 µM; IC50 ([5]; 48 h of treatment, 24-h-old biofilm, listed as evernic acid, read-out: Anti-biofilm activity MBIC50): 37 µM; IC50 ([5]; 48 h of treatment, 24-h-old biofilm, read-out: Anti-biofilm activity MBIC50): 37.5 µM; IC50 ([5]; Candida albicans, 48 h, cyclodextrin experiment, 1.5 to 50 µM, 48 h of contact, read-out: Concentration giving 50% inhibition of the biofilm): 12.5 µM; Growth inhibition of HeLa cells (% inhibition) ([9]; at 6.125 µg/ml): 22.2 ± 2.8%; Growth inhibition of HeLa cells (% inhibition) ([9]; at 100 µg/ml): more than 70%; Inhibition of HeLa cell growth ([9]; at the lowest tested / minimal active concentration (12.5 or 6.25 µg/ml)): 22%
COc1cc(C)c(C(=O)Oc2cc(C)c(C(=O)O)c(O)c2C)c(O)c1C(=O)O [Compound 2, Squamatic acid]	0.4 ± 0.01%	50 µg/mL and 128 µM	12.5 µg/mL and 32 µM	> 200 µg/mL	> 200 µg/mL	Growth inhibition of HeLa cells (% inhibition) ([9]; at 12.5 µg/ml): 14.8 ± 1.6%
COc1cc(C)c(C(=O)Oc2c(C)c(C(=O)O)c(O)c(C=O)c2O)c(O)c1C(=O)O [Compound 3, thamnolic acid]	4.0 ± 0.02%	50 µg/mL and 120 µM	12.5 µg/mL and 30 µM	> 200 µg/mL	> 200 µg/mL	Growth inhibition of HeLa cells (% inhibition) ([9]; at 12.5 µg/ml): 11.0 ± 0.9%
COC(=O)c1c(C)cc(OC(=O)c2c(C)cc(O)c(C=O)c2O)c(C)c1O [Compound 4, atranorin]	0%	> 200 µg/mL	> 200 µg/mL	> 200 µg/mL	> 200 µg/mL	IC50 ([3]; incubation time not stated, read-out: MMIC50 (anti-maturation IC50)): ≥ 100 µg/mL; Growth inhibition of HeLa cells (% inhibition) ([9]; at 100 µg/ml): 84.5 ± 6.8%
Cc1cc(OC(=O)c2c(C)cc(OC(=O)c3c(C)cc(O)cc3O)cc2O)cc(O)c1C(=O)O [Compound 5, gyrophoric acid]	0.5 ± 0.27%	> 200 µg/mL	100 µg/mL (≈ 213 µM)	> 200 µg/mL	> 200 µg/mL	Growth inhibition of HeLa cells (% inhibition) ([9]; at 100 µg/ml): 70.0 ± 2.3%
Cc1cc(O)c(C=O)c2c1C(=O)Oc1c(C)c(O)c3c(c1O2)C(O)OC3=O (stereo not shown) [Compound 6, norstictic acid]	–	> 200 µg/mL	> 200 µg/mL	> 200 µg/mL	> 200 µg/mL	–
Cc1cc(O)c(C=O)c2c1C(=O)Oc1c(CO)c(O)c3c(c1O2)[C@@H](O)OC3=O [Compound 7, salazinic acid]	–	–	–	> 200 µg/mL	> 200 µg/mL	–
COc1cc(C)c2c(c1C=O)Oc1c(c(C)c(O)c3c1C(O)OC3=O)OC2=O (stereo not shown) [Compound 8, stictic acid]	–	200 µg/mL (≈ 518 µM)	200 µg/mL (≈ 518 µM)	> 200 µg/mL	> 200 µg/mL	–
CCCCCC(=O)Cc1cc(O)cc2c1C(=O)Oc1cc(O)c(C(=O)O)c(CCCCC)c1O2 [Compound 9, physodic acid]	–	> 200 µg/mL	> 200 µg/mL	> 200 µg/mL	> 200 µg/mL	–
CCCCCC(=O)Cc1cc(O)c(O)c2c1C(=O)Oc1cc(O)c(C(=O)O)c(CCCCC)c1O2 [Compound 10, 3-hydroxyphysodic acid]	–	> 200 µg/mL	100 µg/mL (≈ 206 µM)	> 200 µg/mL	100 µg/mL	–

Source: paper PMC8481799, “Lichen Polyphenolic Compounds for the Eradication of Candida albicans Biofilms” (Frontiers in Cellular and Infection Microbiology, 2021)
